According to patent US20100267561A1, “HERBICIDAL PYRIDAZINONE DERIVATIVES” (priority 2007, published 2010):

Experiments:
Assay in all cases: Test E pre-/postemergence plant response
Type in all cases: in vivo
Details in all cases: scale 0 to 100
[1] = test system: Italian ryegrass (Lolium multiflorum)
In short: (§1)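 Scores are visual estimates of control on a 0 to 100 scale, made against untreated plants 14 to 21 days after treatment in the greenhouse. Application was preemergence to sown seeds or postemergence to 2–18 cm plants (1- to 4-leaf stage), using a surfactant-containing non-phytotoxic solvent formulation.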

[2] = test system: annual bluegrass (Poa annua)
In short: as §1

[3] = test system: barnyardgrass (Echinochloa crus-galli)
In short: as §1

[4] = test system: black mustard (Brassica nigra)
In short: as §1

[5] = test system: broadleaf signalgrass (Brachiaria platyphylla)
In short: as §1

[6] = test system: common groundsel (Senecio vulgaris)
In short: as §1

[7] = test system: common mallow (Malva sylvestris)
In short: as §1

[8] = test system: common purslane (Portulaca oleracea)
In short: as §1

[9] = test system: dallisgrass (Paspalum dilatatum)
In short: as §1

[10] = test system: green foxtail (Setaria viridis)
In short: as §1

[11] = test system: itchgrass (Rottboellia cochinchinensis)
In short: as §1

[12] = test system: johnsongrass (Sorghum halepense)
In short: as §1

[13] = test system: large crabgrass (Digitaria sanguinalis)
In short: as §1

[14] = test system: naked crabgrass (Digitaria nuda)
In short: as §1

[15] = test system: pitted morningglory (Ipomoea lacunosa)
In short: as §1

[16] = test system: purple nutsedge (Cyperus rotundus)
In short: as §1

[17] = test system: surinam grass (Brachiaria decumbens)
In short: as §1

CCOC(=O)Oc1cnn(C)c(=O)c1-n1nc(-c2ccc(Cl)cc2)cc1C [Compound 53]
25: Plant response rating, Mustard, Black ([4]; 62 g ai/ha, Preemergence)
20: Plant response rating, Dallisgrass ([9]; Postemergence, 16 g ai/ha) | Plant response rating, Foxtail, Green ([10]; 16 g ai/ha, Preemergence)
100: Plant response rating, Ryegrass, Italian ([1]; 31 g ai/ha, Preemergence) | Plant response rating, Ryegrass, Italian ([1]; 62 g ai/ha, Preemergence) | Plant response rating, Ryegrass, Italian ([1]; Postemergence, 16 g ai/ha) | Plant response rating, Ryegrass, Italian ([1]; Postemergence, 31 g ai/ha) | Plant response rating, Ryegrass, Italian ([1]; Postemergence, 62 g ai/ha) | Plant response rating, Barnyardgrass ([3]; 31 g ai/ha, Preemergence) | Plant response rating, Barnyardgrass ([3]; 62 g ai/ha, Preemergence) | Plant response rating, Barnyardgrass ([3]; Postemergence, 8 g ai/ha) | Plant response rating, Barnyardgrass ([3]; Postemergence, 16 g ai/ha) | Plant response rating, Barnyardgrass ([3]; Postemergence, 31 g ai/ha) | Plant response rating, Barnyardgrass ([3]; Postemergence, 62 g ai/ha) | Plant response rating, Signalgrass ([5]; Postemergence, 62 g ai/ha) | Plant response rating, Foxtail, Green ([10]; 62 g ai/ha, Preemergence) | Plant response rating, Foxtail, Green ([10]; Postemergence, 62 g ai/ha) | Plant response rating, Johnsongrass ([12]; Postemergence, 16 g ai/ha) | Plant response rating, Johnsongrass ([12]; Postemergence, 31 g ai/ha) | Plant response rating, Johnsongrass ([12]; Postemergence, 62 g ai/ha) | Plant response rating, Crabgrass, Large ([13]; 62 g ai/ha, Preemergence) | Plant response rating, Crabgrass, Large ([13]; Postemergence, 62 g ai/ha) | Plant response rating, Crabgrass, Naked ([14]; 31 g ai/ha, Preemergence) | Plant response rating, Crabgrass, Naked ([14]; 62 g ai/ha, Preemergence) | Plant response rating, Crabgrass, Naked ([14]; Postemergence, 62 g ai/ha) | Plant response rating, Surinam Grass ([17]; 16 g ai/ha, Preemergence) | Plant response rating, Surinam Grass ([17]; 31 g ai/ha, Preemergence) | Plant response rating, Surinam Grass ([17]; 62 g ai/ha, Preemergence) | Plant response rating, Surinam Grass ([17]; Postemergence, 31 g ai/ha) | Plant response rating, Surinam Grass ([17]; Postemergence, 62 g ai/ha)
70: Plant response rating, Foxtail, Green ([10]; Postemergence, 8 g ai/ha) | Plant response rating, Itchgrass ([11]; Postemergence, 8 g ai/ha) | Plant response rating, Johnsongrass ([12]; 16 g ai/ha, Preemergence)
98: Plant response rating, Signalgrass ([5]; 31 g ai/ha, Preemergence) | Plant response rating, Signalgrass ([5]; 62 g ai/ha, Preemergence) | Plant response rating, Itchgrass ([11]; Postemergence, 62 g ai/ha) | Plant response rating, Crabgrass, Naked ([14]; Postemergence, 31 g ai/ha) | Plant response rating, Nutsedge, Purple ([16]; 62 g ai/ha, Preemergence)
0: Plant response rating, Bluegrass ([2]; 16 g ai/ha, Preemergence) | Plant response rating, Bluegrass ([2]; 31 g ai/ha, Preemergence) | Plant response rating, Bluegrass ([2]; Postemergence, 8 g ai/ha) | Plant response rating, Bluegrass ([2]; Postemergence, 16 g ai/ha) | Plant response rating, Bluegrass ([2]; Postemergence, 31 g ai/ha) | Plant response rating, Bluegrass ([2]; Postemergence, 62 g ai/ha) | Plant response rating, Mustard, Black ([4]; 16 g ai/ha, Preemergence) | Plant response rating, Mustard, Black ([4]; 31 g ai/ha, Preemergence) | Plant response rating, Mustard, Black ([4]; Postemergence, 8 g ai/ha) | Plant response rating, Mustard, Black ([4]; Postemergence, 16 g ai/ha) | Plant response rating, Mustard, Black ([4]; Postemergence, 31 g ai/ha) | Plant response rating, Mustard, Black ([4]; Postemergence, 62 g ai/ha) | Plant response rating, Groundsel ([6]; 16 g ai/ha, Preemergence) | Plant response rating, Groundsel ([6]; 31 g ai/ha, Preemergence) | Plant response rating, Groundsel ([6]; 62 g ai/ha, Preemergence) | Plant response rating, Groundsel ([6]; Postemergence, 8 g ai/ha) | Plant response rating, Groundsel ([6]; Postemergence, 16 g ai/ha) | Plant response rating, Groundsel ([6]; Postemergence, 31 g ai/ha) | Plant response rating, Groundsel ([6]; Postemergence, 62 g ai/ha) | Plant response rating, Mallow ([7]; 62 g ai/ha, Preemergence) | Plant response rating, Mallow ([7]; Postemergence, 8 g ai/ha) | Plant response rating, Mallow ([7]; Postemergence, 16 g ai/ha) | Plant response rating, Mallow ([7]; Postemergence, 31 g ai/ha) | Plant response rating, Mallow ([7]; Postemergence, 62 g ai/ha) | Plant response rating, Purslane ([8]; 16 g ai/ha, Preemergence) | Plant response rating, Purslane ([8]; 31 g ai/ha, Preemergence) | Plant response rating, Purslane ([8]; 62 g ai/ha, Preemergence) | Plant response rating, Purslane ([8]; Postemergence, 8 g ai/ha) | Plant response rating, Purslane ([8]; Postemergence, 16 g ai/ha) | Plant response rating, Purslane ([8]; Postemergence, 31 g ai/ha) | Plant response rating, Purslane ([8]; Postemergence, 62 g ai/ha) | Plant response rating, Dallisgrass ([9]; Postemergence, 8 g ai/ha) | Plant response rating, Morningglory ([15]; 16 g ai/ha, Preemergence) | Plant response rating, Morningglory ([15]; 31 g ai/ha, Preemergence) | Plant response rating, Morningglory ([15]; Postemergence, 8 g ai/ha) | Plant response rating, Morningglory ([15]; Postemergence, 16 g ai/ha) | Plant response rating, Morningglory ([15]; Postemergence, 31 g ai/ha) | Plant response rating, Nutsedge, Purple ([16]; 16 g ai/ha, Preemergence) | Plant response rating, Nutsedge, Purple ([16]; Postemergence, 8 g ai/ha) | Plant response rating, Nutsedge, Purple ([16]; Postemergence, 16 g ai/ha) | Plant response rating, Nutsedge, Purple ([16]; Postemergence, 31 g ai/ha) | Plant response rating, Nutsedge, Purple ([16]; Postemergence, 62 g ai/ha)
85: Plant response rating, Itchgrass ([11]; 31 g ai/ha, Preemergence)
35: Plant response rating, Crabgrass, Large ([13]; Postemergence, 8 g ai/ha) | Plant response rating, Morningglory ([15]; 62 g ai/ha, Preemergence) | Plant response rating, Nutsedge, Purple ([16]; 31 g ai/ha, Preemergence)
80: Plant response rating, Ryegrass, Italian ([1]; Postemergence, 8 g ai/ha) | Plant response rating, Dallisgrass ([9]; 31 g ai/ha, Preemergence) | Plant response rating, Foxtail, Green ([10]; Postemergence, 16 g ai/ha) | Plant response rating, Crabgrass, Naked ([14]; 16 g ai/ha, Preemergence) | Plant response rating, Crabgrass, Naked ([14]; Postemergence, 16 g ai/ha)
95: Plant response rating, Barnyardgrass ([3]; 16 g ai/ha, Preemergence) | Plant response rating, Signalgrass ([5]; Postemergence, 16 g ai/ha) | Plant response rating, Signalgrass ([5]; Postemergence, 31 g ai/ha) | Plant response rating, Dallisgrass ([9]; 62 g ai/ha, Preemergence) | Plant response rating, Itchgrass ([11]; Postemergence, 31 g ai/ha) | Plant response rating, Johnsongrass ([12]; 62 g ai/ha, Preemergence) | Plant response rating, Crabgrass, Large ([13]; 31 g ai/ha, Preemergence) | Plant response rating, Crabgrass, Large ([13]; Postemergence, 16 g ai/ha) | Plant response rating, Crabgrass, Large ([13]; Postemergence, 31 g ai/ha)
50: Plant response rating, Johnsongrass ([12]; Postemergence, 8 g ai/ha)
65: Plant response rating, Dallisgrass ([9]; 16 g ai/ha, Preemergence) | Plant response rating, Foxtail, Green ([10]; 31 g ai/ha, Preemergence)
30: Plant response rating, Dallisgrass ([9]; Postemergence, 31 g ai/ha) | Plant response rating, Crabgrass, Naked ([14]; Postemergence, 8 g ai/ha) | Plant response rating, Morningglory ([15]; Postemergence, 62 g ai/ha)
40: Plant response rating, Signalgrass ([5]; 16 g ai/ha, Preemergence) | Plant response rating, Crabgrass, Large ([13]; 16 g ai/ha, Preemergence)
90: Plant response rating, Ryegrass, Italian ([1]; 16 g ai/ha, Preemergence) | Plant response rating, Signalgrass ([5]; Postemergence, 8 g ai/ha) | Plant response rating, Foxtail, Green ([10]; Postemergence, 31 g ai/ha) | Plant response rating, Itchgrass ([11]; 62 g ai/ha, Preemergence) | Plant response rating, Itchgrass ([11]; Postemergence, 16 g ai/ha) | Plant response rating, Johnsongrass ([12]; 31 g ai/ha, Preemergence) | Plant response rating, Surinam Grass ([17]; Postemergence, 8 g ai/ha) | Plant response rating, Surinam Grass ([17]; Postemergence, 16 g ai/ha)
60: Plant response rating, Bluegrass ([2]; 62 g ai/ha, Preemergence)
75: Plant response rating, Dallisgrass ([9]; Postemergence, 62 g ai/ha) | Plant response rating, Itchgrass ([11]; 16 g ai/ha, Preemergence)
